Data: BindingDB's records for doi:10.1021/jm0604777 (University of Bristol, 2006)

Assays:
[1] = biological target: Delta-type opioid receptor (Homo sapiens, UniProt P41143); test: Displacement of [3H]Cl-DPDPE from human recombinant DOR expressed in CHO cells
[2] = Binding affinity to DOR in guinea pig brain membrane

Sequence of Delta-type opioid receptor (P41143 whole entry): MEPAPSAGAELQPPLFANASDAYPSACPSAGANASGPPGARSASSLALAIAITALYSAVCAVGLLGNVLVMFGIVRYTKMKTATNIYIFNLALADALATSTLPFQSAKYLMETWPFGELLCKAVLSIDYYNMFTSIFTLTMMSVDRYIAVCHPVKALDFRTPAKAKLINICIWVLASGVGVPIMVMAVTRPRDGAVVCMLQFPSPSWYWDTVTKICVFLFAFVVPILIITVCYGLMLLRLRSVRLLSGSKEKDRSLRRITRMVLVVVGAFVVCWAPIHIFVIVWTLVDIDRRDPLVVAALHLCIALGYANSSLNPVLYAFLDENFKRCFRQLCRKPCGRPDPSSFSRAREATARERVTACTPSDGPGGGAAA

Compound	Ki [1]	Ki [2]
Cc1ccc(CCC(=O)N[C@@]23CCC(=O)[C@@H]4Oc5c(O)ccc6c5[C@@]42CCN(C)C3C6)cc1 [N-[(1R,13R,17S)-10-hydroxy-4-methyl-14-oxo-12-oxa-4-azapentacyclo[9.6.1.0^{1,13}.0^{5,17}.0^{7,18}]octadeca-7(18),8,10-trien-17-yl]-3-(4-methylphenyl)propanamide]	1.3 nM	–
Cc1ccccc1/C=C/C(=O)N[C@@]12CCC(=O)[C@@H]3Oc4c(O)ccc5c4[C@@]31CCN(CC1CC1)C2C5 [N-cyclopropylmethyl-14beta-(2'-methylcinnamoylamino)-7,8-dihydronormorphinone]	1.3 nM	–
COc1ccc2c3c1O[C@H]1C(=O)CC[C@@]4(NC(=O)/C=C/c5ccccc5Cl)C(C2)N(CC2CC2)CC[C@]314 [N-cyclopropylmethyl-14beta-(2'-chlorocinnamoylamino)-7,8-dihydronorcodeinone]	–	7.2 nM
COc1ccc2c3c1O[C@H]1C(=O)CC[C@@]4(NC(=O)/C=C/c5ccccc5C)C(C2)N(CC2CC2)CC[C@]314 [N-cyclopropylmethyl-14beta-(2'-methylcinnamoylamino)-7,8-dihydronorcodeinone]	–	2.3 nM
